Experiments:
[1] = system: human acute myeloid leukemia MV-4-11 cells; experiment: In vitro inhibitory effect on the proliferation of MV-4-11 cells (MTT, 72 h); type: cell-based; conditions: MV4-11, 72 hours exposure
Method: The human acute myeloid leukemia MV-4-11 cells used in the assay were purchased from Shanghai Institutes for Biological Sciences, Chinese Academy of Sciences. The complete culture medium required for cell culture was IMDM (GIBCO Company), which was supplemented with 10% fetal bovine serum (GIBCO Company). Cells were cultured in a 37° C., 5% CO2 incubator. The reagents used in the assay included dimethyl sulfoxide (purchased from Tianjin Kemiou Chemical Reagent Co., Ltd.), and MTT (Shanghai Topbiochem Co., Ltd., CAS. NO. 298-93-1). The test substance was sealed and stored at 4° C.
Dimethyl sulfoxide was used as the solvent to fully dissolve the test substance and prepare a stock solution with a concentration of 5×10^−2 mol/L. The stock solution was stored at −20° C. A complete culture medium was used as the diluent, and the test substance was diluted to different concentrations in a gradient for later use. 100 µL/well (2×10^4 cells/well) of a suspension of MV-4-11 cells in the complete culture medium was added to a 96-well culture plate. 100 μL/well of the corresponding test substances at different concentrations were added respectively. 8 concentrations were set for each test substance, and 3 duplicate wells were set for each concentration. The plate was cultured in a 37° C., 5% CO2 incubator. 20 μL/well of MTT was added after 72 hours of exposure to the test substances. The plate was cultured for 4 hours in a 37° C., 5% CO2 incubator. The supernatant was discarded, and 150 μL/well of dimethyl sulfoxide was added. The plate contents were oscillated and mixed evenly. The microplate reader was used to detect the OD value at a wavelength of 550 nm. The well only containing the cell suspension without test substance was a control well, and the well only containing the complete culture medium was a blank well. The inhibition rate of the cell growth was calculated with the following formula: • Inhibition rate=(ODcontrol well-ODtest well)/(ODcontrol well-ODblank well)*100%. According to the inhibition rates at each concentration, SPSS software was used to calculate the half inhibitory concentration IC50 value.

[2] = Mouse tolerance assay (once daily for 7 consecutive days); type: in vivo; conditions: mouse, in vivo; for Number of animals (number of deaths/total number): 7 days
Method: • Assay animals: ICR mice, female, 5 weeks old • Solvent: 2% DMSO+98% (0.5% MC), treated by sufficient vortex and sonicated to obtain a uniform suspension • Assay method: Female ICR mice were divided into 4 groups according to weight balance, with 5 mice in each group. The administration doses were 50 mg/kg and 200 mg/kg respectively. The compound was administrated once daily for 7 consecutive days.

[2H][C@@]1(N)c2ccccc2OC12CCN(c1nc(N)c(Sc3ccnc(N)c3Cl)nc1C(C)=O)CC2 [Compound 56, (R)-1-(5-amino-6-((2-amino-3-chloropyridine-4-yl)sulfanyl)-3-(3-amino-3-deuterium-spiro[benzofuran-2,4′-piperidine]-1′-yl)pyrazine-2-yl)ethanone]
IC50 [1]: ≤ 20 nM
MTD at 7 days ([2]; female, ICR): > 200 mg/kg
Number of animals (number of deaths/total number) ([2]; female, ICR, 50 mg/kg): 0/5F
Number of animals (number of deaths/total number) ([2]; female, ICR, 200 mg/kg): 0/5F
tolerance in mice compared with positive control compound TW-45 [2]: significantly better

From US20240376119A1, “SPIRO COMPOUND AND USE THEREOF” (CSPC Zhongqi Pharmaceutical Technology (Shijiazhuang) Co., …, priority 2021, published 2024)
